Where two headings read alike, the source gives them in different places.
Legend:
[1] = test system: collagen IV sites; conditions: unconjugated VEGF; limited to the number of collagen IV sites available; cited from earlier work
[2] = test system: collagen IV; conditions: vs scrambled peptide control biotin-CBPi-QK; measured using Alexafluor 488 streptavidin
[3] = test system: collagen IV; assay: binding assay to collagen IV of CBP-VEGF vs CBPi-VEGF, ELISA for VEGF121; conditions: vs scrambled peptide control CBPi-VEGF; measured using an ELISA for VEGF121
Method: The result is measured using an ELISA for VEGF121.

VEGF
share of VEGF added to a scaffold that will bind [1]: 5%

biotin-CQDSETRT-KLTWQELYQLKYKGI-COOH (SEQ ID NO: 16) [biotin-CBP-QK]
binding to collagen IV [2]: significantly greater than the scrambled control at all concentrations

B1: CBP-VEGF: VEGF121 protein conjugated by click chemistry to collagen binding protein CBP (CQDSETRTFY, SEQ ID NO: 1) (conjugate)
chain: APMAEGGGQNHHEVVKFMDVYQRSYCHPIETLVDIFQEYPDEIEYIFKPSCVPLMRCGGCCNDEGLECVPTEESNITMQIMRIKPHQGQHIGEMSFLQHNKCECRPKKDRARQEKCDKPRR
peptide: CQDSETRTFY
binding to collagen IV [3]: significantly greater than the scrambled control at all concentrations

Reference: patent US20240245791A1, “METHODS AND COMPOSITIONS FOR LOCALIZATION OF GROWTH FACTORS” (Arizona Board of Regents on Behalf of the University of …, priority 2021, published 2024)
